Like-named read-outs stand apart in the source and are kept apart here. Each block holds one molecule with its values, some of them ahead of it.
Assays:
Experiment in all cases: biochemical
Set-up in all cases: DiscoveRx KINOMEscan active site-directed competition binding; percent of control kinase bound to immobilised ligand
[1] = biological target: ACVR2A (Homo sapiens, UniProt P27037)
[2] = biological target: CSK (Homo sapiens, UniProt P41240)
[3] = biological target: PIK3CA(E545K) (Homo sapiens, UniProt P42336, E545K)
[4] = biological target: T1, TAOK1 (Homo sapiens, UniProt Q7L7X3)
T1 sequence (Q7L7X3 1-1001): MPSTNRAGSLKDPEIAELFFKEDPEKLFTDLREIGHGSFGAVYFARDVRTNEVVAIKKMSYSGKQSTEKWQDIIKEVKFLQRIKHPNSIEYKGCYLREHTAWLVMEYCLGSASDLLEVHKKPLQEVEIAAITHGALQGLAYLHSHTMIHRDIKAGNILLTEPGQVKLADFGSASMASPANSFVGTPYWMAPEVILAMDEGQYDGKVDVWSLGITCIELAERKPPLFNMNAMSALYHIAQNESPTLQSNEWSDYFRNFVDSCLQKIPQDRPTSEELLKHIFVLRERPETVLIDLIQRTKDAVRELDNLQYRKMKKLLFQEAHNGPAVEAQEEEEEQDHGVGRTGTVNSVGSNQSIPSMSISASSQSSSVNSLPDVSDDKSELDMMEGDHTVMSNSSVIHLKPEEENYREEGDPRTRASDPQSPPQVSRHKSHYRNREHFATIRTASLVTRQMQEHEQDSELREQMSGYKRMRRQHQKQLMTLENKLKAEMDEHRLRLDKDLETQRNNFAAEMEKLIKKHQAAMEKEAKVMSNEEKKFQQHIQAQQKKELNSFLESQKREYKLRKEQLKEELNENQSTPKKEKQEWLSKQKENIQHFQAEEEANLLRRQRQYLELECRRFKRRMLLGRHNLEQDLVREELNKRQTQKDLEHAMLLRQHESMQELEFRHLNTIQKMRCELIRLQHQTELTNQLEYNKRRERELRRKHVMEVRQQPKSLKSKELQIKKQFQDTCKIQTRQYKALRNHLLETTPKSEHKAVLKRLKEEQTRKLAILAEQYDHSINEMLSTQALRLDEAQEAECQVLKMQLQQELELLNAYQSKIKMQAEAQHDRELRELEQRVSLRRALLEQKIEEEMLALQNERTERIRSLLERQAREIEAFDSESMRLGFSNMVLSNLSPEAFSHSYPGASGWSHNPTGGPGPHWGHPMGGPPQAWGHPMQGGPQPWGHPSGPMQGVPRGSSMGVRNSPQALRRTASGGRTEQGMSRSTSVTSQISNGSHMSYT

[5] = biological target: BTK (Homo sapiens, UniProt Q06187)
[6] = biological target: T2, FAK (Homo sapiens, UniProt Q05397)
T2 construct: gene PTK2

[7] = biological target: T3, PRKD2 (Homo sapiens, UniProt Q9BZL6)
T3 sequence (Q9BZL6 1-878): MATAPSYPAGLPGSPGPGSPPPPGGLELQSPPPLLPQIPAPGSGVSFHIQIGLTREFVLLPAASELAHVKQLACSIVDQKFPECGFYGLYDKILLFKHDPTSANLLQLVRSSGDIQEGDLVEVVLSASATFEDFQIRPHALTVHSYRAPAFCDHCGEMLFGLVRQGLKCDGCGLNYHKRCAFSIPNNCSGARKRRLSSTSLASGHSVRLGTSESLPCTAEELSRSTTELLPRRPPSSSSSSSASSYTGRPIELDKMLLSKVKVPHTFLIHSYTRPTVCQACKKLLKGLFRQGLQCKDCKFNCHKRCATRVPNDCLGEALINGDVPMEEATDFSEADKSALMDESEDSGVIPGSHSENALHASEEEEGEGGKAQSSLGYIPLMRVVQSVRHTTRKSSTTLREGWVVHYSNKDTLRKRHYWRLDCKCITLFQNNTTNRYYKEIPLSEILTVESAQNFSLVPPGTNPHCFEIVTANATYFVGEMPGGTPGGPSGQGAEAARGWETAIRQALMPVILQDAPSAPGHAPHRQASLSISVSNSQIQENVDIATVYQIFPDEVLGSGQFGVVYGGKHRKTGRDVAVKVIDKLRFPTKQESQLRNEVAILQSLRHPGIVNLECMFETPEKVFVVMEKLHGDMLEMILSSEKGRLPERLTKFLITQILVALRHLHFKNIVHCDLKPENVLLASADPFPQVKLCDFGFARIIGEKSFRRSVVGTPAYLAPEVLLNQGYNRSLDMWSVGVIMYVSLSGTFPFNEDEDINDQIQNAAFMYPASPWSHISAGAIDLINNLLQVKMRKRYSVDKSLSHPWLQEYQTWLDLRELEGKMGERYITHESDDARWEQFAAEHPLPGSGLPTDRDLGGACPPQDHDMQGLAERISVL

[8] = biological target: STK16 (Homo sapiens, UniProt O75716)
[9] = biological target: EGFR(S752-I759del) (Homo sapiens, UniProt P00533, DEL752-759)
[10] = biological target: BLK (Homo sapiens, UniProt P51451)
[11] = biological target: PIP5K1A (Homo sapiens, UniProt Q99755)
[12] = read-out: Niraparib (MK-4827) / %Ctrl @ 10000nM
[13] = read-out: Olaparib / %Ctrl @ 10000nM
[14] = read-out: Rucaparib / %Ctrl @ 10000nM, binding competition, % of control
[15] = read-out: Talazoparib (BMN 673) / %Ctrl @ 10000nM

T2 sequence (Q05397 whole entry): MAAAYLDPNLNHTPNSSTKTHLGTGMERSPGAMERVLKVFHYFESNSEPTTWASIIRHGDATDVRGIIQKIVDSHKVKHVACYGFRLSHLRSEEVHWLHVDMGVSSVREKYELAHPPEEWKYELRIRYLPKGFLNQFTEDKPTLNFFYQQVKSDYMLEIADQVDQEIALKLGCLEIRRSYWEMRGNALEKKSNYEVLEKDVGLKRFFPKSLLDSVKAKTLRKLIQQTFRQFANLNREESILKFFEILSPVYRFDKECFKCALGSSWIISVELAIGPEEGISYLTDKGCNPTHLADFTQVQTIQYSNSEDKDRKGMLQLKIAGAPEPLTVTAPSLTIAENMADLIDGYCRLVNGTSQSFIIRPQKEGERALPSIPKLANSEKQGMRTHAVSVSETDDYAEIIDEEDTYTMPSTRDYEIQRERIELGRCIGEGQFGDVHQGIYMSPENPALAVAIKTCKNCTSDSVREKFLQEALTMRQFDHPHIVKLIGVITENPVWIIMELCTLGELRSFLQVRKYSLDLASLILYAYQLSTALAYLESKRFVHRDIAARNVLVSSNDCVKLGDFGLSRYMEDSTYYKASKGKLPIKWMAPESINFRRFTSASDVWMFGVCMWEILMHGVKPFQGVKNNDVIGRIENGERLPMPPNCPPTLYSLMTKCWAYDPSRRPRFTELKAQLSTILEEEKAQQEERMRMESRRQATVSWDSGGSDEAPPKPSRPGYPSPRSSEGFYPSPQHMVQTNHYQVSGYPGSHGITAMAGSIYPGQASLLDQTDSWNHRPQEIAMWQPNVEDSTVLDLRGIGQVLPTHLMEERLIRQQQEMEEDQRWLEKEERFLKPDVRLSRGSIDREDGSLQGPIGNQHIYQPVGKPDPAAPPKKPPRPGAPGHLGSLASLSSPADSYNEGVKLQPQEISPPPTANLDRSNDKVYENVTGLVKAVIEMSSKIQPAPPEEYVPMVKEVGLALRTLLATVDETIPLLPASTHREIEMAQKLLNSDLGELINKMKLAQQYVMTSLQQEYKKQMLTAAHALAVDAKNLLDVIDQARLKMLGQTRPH
Sequence of ACVR2A (P27037 whole entry): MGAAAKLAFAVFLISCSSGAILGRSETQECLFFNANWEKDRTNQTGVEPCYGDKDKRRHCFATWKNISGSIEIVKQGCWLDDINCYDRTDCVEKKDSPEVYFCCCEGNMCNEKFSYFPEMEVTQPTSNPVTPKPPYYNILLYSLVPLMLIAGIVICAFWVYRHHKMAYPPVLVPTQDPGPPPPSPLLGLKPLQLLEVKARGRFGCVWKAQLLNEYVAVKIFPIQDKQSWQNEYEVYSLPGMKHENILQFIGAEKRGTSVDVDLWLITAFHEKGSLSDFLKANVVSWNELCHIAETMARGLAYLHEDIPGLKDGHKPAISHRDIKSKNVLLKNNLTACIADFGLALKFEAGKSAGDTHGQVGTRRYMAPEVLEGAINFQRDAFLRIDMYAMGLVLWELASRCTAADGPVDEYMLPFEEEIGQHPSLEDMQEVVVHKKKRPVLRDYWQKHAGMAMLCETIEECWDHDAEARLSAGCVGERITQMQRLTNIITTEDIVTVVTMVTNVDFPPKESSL
Sequence of PIK3CA(E545K) (P42336 whole entry E545K): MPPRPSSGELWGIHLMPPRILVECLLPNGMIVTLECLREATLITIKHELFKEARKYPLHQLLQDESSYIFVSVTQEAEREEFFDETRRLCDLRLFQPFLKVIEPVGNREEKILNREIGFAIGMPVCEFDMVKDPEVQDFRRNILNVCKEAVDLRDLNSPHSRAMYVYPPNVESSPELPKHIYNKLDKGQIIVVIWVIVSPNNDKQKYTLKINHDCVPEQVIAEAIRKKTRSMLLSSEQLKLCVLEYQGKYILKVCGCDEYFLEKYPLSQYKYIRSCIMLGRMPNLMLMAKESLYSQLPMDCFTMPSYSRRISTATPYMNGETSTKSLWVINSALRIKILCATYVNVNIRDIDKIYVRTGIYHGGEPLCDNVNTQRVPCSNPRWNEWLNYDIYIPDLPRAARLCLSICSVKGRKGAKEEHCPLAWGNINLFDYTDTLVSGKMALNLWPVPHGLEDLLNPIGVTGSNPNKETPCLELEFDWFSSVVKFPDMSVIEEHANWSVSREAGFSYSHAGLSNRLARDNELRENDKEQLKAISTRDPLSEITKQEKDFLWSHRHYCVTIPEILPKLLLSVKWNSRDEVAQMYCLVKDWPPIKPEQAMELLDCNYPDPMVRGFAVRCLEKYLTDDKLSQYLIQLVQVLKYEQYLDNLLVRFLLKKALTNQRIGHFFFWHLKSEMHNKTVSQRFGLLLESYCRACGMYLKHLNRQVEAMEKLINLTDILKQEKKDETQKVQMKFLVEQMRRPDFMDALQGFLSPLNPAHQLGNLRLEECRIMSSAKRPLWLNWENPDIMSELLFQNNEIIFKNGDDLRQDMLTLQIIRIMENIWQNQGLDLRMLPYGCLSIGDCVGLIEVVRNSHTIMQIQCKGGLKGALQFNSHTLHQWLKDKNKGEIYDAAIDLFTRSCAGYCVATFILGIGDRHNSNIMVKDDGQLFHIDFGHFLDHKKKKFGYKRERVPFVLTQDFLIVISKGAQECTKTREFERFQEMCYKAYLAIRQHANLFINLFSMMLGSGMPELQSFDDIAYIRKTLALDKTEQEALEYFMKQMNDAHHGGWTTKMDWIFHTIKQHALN
Sequence of STK16 (O75716 whole entry): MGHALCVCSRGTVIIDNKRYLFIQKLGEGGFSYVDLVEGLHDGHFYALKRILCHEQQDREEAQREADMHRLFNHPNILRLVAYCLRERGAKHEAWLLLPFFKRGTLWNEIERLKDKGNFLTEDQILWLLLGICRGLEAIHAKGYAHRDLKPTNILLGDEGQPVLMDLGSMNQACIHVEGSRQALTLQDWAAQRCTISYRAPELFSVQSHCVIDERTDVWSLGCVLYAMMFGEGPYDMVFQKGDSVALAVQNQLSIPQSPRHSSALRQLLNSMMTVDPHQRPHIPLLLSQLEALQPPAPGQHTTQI
Sequence of EGFR(S752-I759del) (P00533 with tags, fused parts or gaps DEL752-759): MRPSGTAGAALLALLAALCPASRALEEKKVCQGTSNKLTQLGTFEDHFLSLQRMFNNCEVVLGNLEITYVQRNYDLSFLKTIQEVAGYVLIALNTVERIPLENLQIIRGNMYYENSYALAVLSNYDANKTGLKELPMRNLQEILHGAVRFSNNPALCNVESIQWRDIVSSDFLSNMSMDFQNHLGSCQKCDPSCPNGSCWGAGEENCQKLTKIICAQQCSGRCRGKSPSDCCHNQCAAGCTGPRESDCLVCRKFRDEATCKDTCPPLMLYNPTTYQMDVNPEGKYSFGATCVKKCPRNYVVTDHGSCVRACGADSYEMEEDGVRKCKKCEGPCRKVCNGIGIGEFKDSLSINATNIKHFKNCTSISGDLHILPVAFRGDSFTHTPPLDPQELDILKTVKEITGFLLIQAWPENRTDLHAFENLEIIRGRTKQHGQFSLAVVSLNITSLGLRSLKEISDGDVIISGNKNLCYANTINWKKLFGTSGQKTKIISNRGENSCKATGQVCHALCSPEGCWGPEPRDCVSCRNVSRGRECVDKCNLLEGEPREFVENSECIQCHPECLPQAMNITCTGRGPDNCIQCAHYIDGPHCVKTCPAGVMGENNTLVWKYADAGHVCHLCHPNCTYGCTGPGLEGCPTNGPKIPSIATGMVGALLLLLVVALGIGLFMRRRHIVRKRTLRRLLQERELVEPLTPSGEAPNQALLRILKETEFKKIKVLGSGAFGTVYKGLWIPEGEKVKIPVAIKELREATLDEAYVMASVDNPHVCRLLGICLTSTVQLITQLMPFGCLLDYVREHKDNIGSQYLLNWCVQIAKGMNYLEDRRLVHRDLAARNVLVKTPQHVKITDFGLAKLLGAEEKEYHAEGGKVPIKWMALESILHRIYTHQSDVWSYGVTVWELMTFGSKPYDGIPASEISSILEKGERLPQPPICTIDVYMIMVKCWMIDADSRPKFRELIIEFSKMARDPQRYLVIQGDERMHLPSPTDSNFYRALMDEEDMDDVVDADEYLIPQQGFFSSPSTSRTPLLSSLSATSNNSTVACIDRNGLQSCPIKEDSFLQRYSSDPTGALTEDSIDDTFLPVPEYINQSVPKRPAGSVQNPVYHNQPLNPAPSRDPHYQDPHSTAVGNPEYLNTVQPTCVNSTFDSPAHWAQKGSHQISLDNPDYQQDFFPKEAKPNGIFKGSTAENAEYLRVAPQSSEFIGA
Sequence of BLK (P51451 whole entry): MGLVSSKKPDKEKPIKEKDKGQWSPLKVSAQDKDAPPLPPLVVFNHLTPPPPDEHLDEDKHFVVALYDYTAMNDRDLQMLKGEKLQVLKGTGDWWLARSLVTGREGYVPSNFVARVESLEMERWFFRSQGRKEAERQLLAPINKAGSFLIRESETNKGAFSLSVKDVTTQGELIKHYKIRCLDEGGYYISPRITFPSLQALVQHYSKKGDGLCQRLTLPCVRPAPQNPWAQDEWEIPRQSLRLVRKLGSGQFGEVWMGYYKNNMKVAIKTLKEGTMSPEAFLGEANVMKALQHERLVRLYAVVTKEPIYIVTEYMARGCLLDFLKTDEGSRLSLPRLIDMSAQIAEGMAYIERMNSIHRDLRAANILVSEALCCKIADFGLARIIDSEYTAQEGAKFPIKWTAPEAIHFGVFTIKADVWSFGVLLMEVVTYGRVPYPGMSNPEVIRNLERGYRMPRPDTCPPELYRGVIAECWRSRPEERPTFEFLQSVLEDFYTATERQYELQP

Compound: NC(=O)c1cccc2cn(-c3ccc([C@@H]4CCCNC4)cc3)nc12 [Niraparib]
percent of control binding at 10 µM [1, 12]: 99%
percent of control binding at 10 µM [2, 12]: 90%
percent of control binding at 10 µM [3, 12]: 95%
percent of control binding at 10 µM [4, 12]: 80%
percent of control binding at 10 µM [5, 12]: 95%
percent of control binding at 10 µM [6, 12]: 100%
percent of control binding at 10 µM [7, 12]: 87%
percent of control binding at 10 µM [8, 12]: 93%
percent of control binding at 10 µM [9, 12]: 71%
percent of control binding at 10 µM [10, 12]: 72%
percent of control binding at 10 µM [11, 12]: 100%

percent of control binding at 10 µM [1, 13]: 95%
percent of control binding at 10 µM [2, 13]: 99%
percent of control binding at 10 µM [3, 13]: 86%
percent of control binding at 10 µM [4, 13]: 96%
percent of control binding at 10 µM [5, 13]: 86%
percent of control binding at 10 µM [6, 13]: 100%
percent of control binding at 10 µM [7, 13]: 95%
percent of control binding at 10 µM [8, 13]: 83%
percent of control binding at 10 µM [9, 13]: 84%
percent of control binding at 10 µM [10, 13]: 90%
percent of control binding at 10 µM [11, 13]: 100%
Compound: O=C(c1cc(Cc2n[nH]c(=O)c3ccccc23)ccc1F)N1CCN(C(=O)C2CC2)CC1 [Olaparib]

percent of control binding at 10 µM [1, 14]: 100%
percent of control binding at 10 µM [2, 14]: 100%
percent of control binding at 10 µM [3, 14]: 79%
percent of control binding at 10 µM [4, 14]: 72%
percent of control binding at 10 µM [5, 14]: 83%
percent of control binding at 10 µM [6, 14]: 100%
percent of control binding at 10 µM [7, 14]: 77%
percent of control binding at 10 µM [8, 14]: 100%
percent of control binding at 10 µM [9, 14]: 89%
percent of control binding at 10 µM [10, 14]: 91%
percent of control binding at 10 µM [11, 14]: 100%
Compound: CNCc1ccc(-c2[nH]c3cc(F)cc4c3c2CCNC4=O)cc1 [Rucaparib]

percent of control binding at 10 µM [1, 15]: 100%
percent of control binding at 10 µM [2, 15]: 87%
percent of control binding at 10 µM [3, 15]: 56%
percent of control binding at 10 µM [4, 15]: 100%
percent of control binding at 10 µM [5, 15]: 100%
percent of control binding at 10 µM [6, 15]: 100%
percent of control binding at 10 µM [7, 15]: 100%
percent of control binding at 10 µM [8, 15]: 90%
percent of control binding at 10 µM [9, 15]: 100%
percent of control binding at 10 µM [10, 15]: 99%
percent of control binding at 10 µM [11, 15]: 88%
Compound: Cn1ncnc1[C@H]1c2n[nH]c(=O)c3cc(F)cc(c23)N[C@@H]1c1ccc(F)cc1 [Talazoparib]

Reference: publication PMC7026418, “The kinase polypharmacology landscape of clinical PARP inhibitors” (Scientific Reports, 2020)
